Common to all, as to type: in vivo
For test [1], the system named is soybean (Glycine max -- var. Winchester). In words: pre-emergence herbicidal activity, soybean. To be noted: 1 kg/Ha, about fourteen days, read-out: pre-emergence herbicidal activity (% control) SOY. The method, boiled down: (§1)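 Seeds sown in soil flats and sprayed pre-emergence with a water/acetone solution of test compound at 1 kg/Ha; untreated controls kept alongside. Phytotoxicity scored after about fourteen days as percent control, 0 being no effect and 100 complete control.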

The test system of test [2] is wheat (Triticum aestivum var. Lew). The test can be described thus: pre-emergence herbicidal activity, wheat. To be noted: 1 kg/Ha, about fourteen days, read-out: pre-emergence herbicidal activity (% control) WHT. A digest of the protocol:
as §1

For test [3], the system named is field corn (Zea mays var. Pioneer 3732). In words: pre-emergence herbicidal activity, corn. Conditions: 1 kg/Ha, about fourteen days, read-out: pre-emergence herbicidal activity (% control) CRN. The method, boiled down:
as §1

Test [4] has as its system velvetleaf (Abutilon theophrasti). The test can be described thus: pre-emergence herbicidal activity, velvetleaf. Conditions: 1 kg/Ha, about fourteen days, read-out: pre-emergence herbicidal activity (% control) ABUTH. A digest of the protocol: as §1
The subject of test [5] is morningglory (Ipomea lacunosa or Ipomea hederacea). The test can be described thus: pre-emergence herbicidal activity, morningglory. Conditions: Ipomoea, 1 kg/Ha, about fourteen days, read-out: pre-emergence herbicidal activity (% control) IPOSS. The method, boiled down: as §1
In test [6] the test system is common chickweed (Stellaria media). In words: pre-emergence herbicidal activity, chickweed. Conditions: 1 kg/Ha, about fourteen days, read-out: pre-emergence herbicidal activity (% control) STEME. A digest of the protocol: as §1
The test system of test [7] is common cocklebur (Xanthium strumarium L.). In words: pre-emergence herbicidal activity, cocklebur. To be noted: 1 kg/Ha, about fourteen days, read-out: pre-emergence herbicidal activity (% control) XANPE. A digest of the protocol:
as §1

In test [8] the test system is blackgrass (Aloepecurus myosuroides). The test can be described thus: pre-emergence herbicidal activity, blackgrass. Conditions: Alopecurus myosuroides, 1 kg/Ha, about fourteen days, read-out: pre-emergence herbicidal activity (% control) ALOMY. The method, boiled down: as §1
The subject of test [9] is green foxtail (Setaria viridis). The test can be described thus: pre-emergence herbicidal activity, green foxtail. Conditions: 1 kg/Ha, about fourteen days, read-out: pre-emergence herbicidal activity (% control) SETVI. The method, boiled down:
as §1

For test [10], the system named is Johnsongrass (Sorghum halepense). In words: pre-emergence herbicidal activity, johnsongrass. To be noted: 1 kg/Ha, about fourteen days, read-out: pre-emergence herbicidal activity (% control) SORHA. The method, boiled down:
as §1

In test [11] the test system is soybean (Glycine max -- var. Winchester). The test can be described thus: post-emergence herbicidal activity, soybean. Conditions: 1 Kg/Ha, about fourteen days, read-out: post-emergence herbicidal activity (% control) SOY. A digest of the protocol: (§2)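 Seedlings were grown in soil flats to a suitable stage, then sprayed with test compound in water/acetone at 1 Kg/Ha. Treated plants were kept alongside untreated controls for about fourteen days and then scored for phytotoxicity as percent control, 0 being no effect and 100 complete control.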

For test [12], the system named is wheat (Triticum aestivum var. Lew). The test can be described thus: post-emergence herbicidal activity, wheat. To be noted: 1 Kg/Ha, about fourteen days, read-out: post-emergence herbicidal activity (% control) WHT. A digest of the protocol: as §2
Test [13] has as its system field corn (Zea mays var. Pioneer 3732). In words: post-emergence herbicidal activity, corn. Conditions: 1 Kg/Ha, about fourteen days, read-out: post-emergence herbicidal activity (% control) CRN. The method, boiled down:
as §2

In test [14] the test system is velvetleaf (Abutilon theophrasti). In words: post-emergence herbicidal activity, velvetleaf. Conditions: 1 Kg/Ha, about fourteen days, read-out: post-emergence herbicidal activity (% control) ABUTH. The method, boiled down:
as §2

Test [15] deals with morningglory (Ipomea lacunosa or Ipomea hederacea). In words: post-emergence herbicidal activity, morningglory. Conditions: Ipomoea, 1 Kg/Ha, about fourteen days, read-out: post-emergence herbicidal activity (% control) IPOSS. A digest of the protocol:
as §2

The subject of test [16] is common chickweed (Stellaria media). The test can be described thus: post-emergence herbicidal activity, chickweed. Conditions: 1 Kg/Ha, about fourteen days, read-out: post-emergence herbicidal activity (% control) STEME. The method, boiled down: as §2
The test system of test [17] is common cocklebur (Xanthium strumarium L.). The test can be described thus: post-emergence herbicidal activity, cocklebur. To be noted: 1 Kg/Ha, about fourteen days, read-out: post-emergence herbicidal activity (% control) XANPE. The method, boiled down:
as §2

Test [18] has as its system blackgrass (Aloepecurus myosuroides). In words: post-emergence herbicidal activity, blackgrass. To be noted: Alopecurus myosuroides, 1 Kg/Ha, about fourteen days, read-out: post-emergence herbicidal activity (% control) ALOMY. A digest of the protocol: as §2
Test [19] concerns green foxtail (Setaria viridis). In words: post-emergence herbicidal activity, green foxtail. Conditions: 1 Kg/Ha, about fourteen days, read-out: post-emergence herbicidal activity (% control) SETVI. The method, boiled down: as §2
Test [20] concerns Johnsongrass (Sorghum halepense). The test can be described thus: post-emergence herbicidal activity, johnsongrass. To be noted: 1 Kg/Ha, about fourteen days, read-out: post-emergence herbicidal activity (% control) SORHA. A digest of the protocol: as §2

With `CC(C)N1Cc2c(ccc(Cl)c2-n2c(=O)cc(C(F)(F)F)n(C)c2=O)C1=O` [Compound 1], the activity at 1000 g/ha in test [1] is 90%; in [2], 80%; in [3], 95%; in test [4], 100%; in test [5], 100%; in test [6] it was 90%. The activity at 1000 g/ha in test [7] is 70%; in [8], 80%; in test [9] it was 100%; in [10], 90%; in test [11] it was 95%; in [12], 70%. Besides, the activity at 1000 g/ha in test [13] was 90%; in test [14], 100%; in [15], 70%; in test [16], 50%; in test [17], 60%; in test [18] it was 75%. For the same compound, the activity at 1000 g/ha in test [19] was 80%; in [20] it was 100%.
In the case of `CC(C)N1Cc2c(-n3c(=O)cc(C(F)(F)F)n(C)c3=O)ccc(Cl)c2C1=O` [Compound 3, 3-[7-chloro-2-(1-methylethyl)isoindolin-1-on-4-yl]-1-methyl-6-trifluoromethyl-2,4(1H,3H)-pyrimidinedione], the activity at 1000 g/ha in test [1], in [2], in test [3], in test [4], in [5] and in test [6] was 100% throughout. Further, the activity at 1000 g/ha came to 100% in [7]; 100% in test [8]; 100% in test [9]; 100% in test [10]; 95% in test [11]; 100% in [12]. Moreover, the activity at 1000 g/ha in test [13], in [14], in test [15], in test [16], in [17] and in [18] was 100% each time. Further, the activity at 1000 g/ha in test [19] and in [20] was 100% each time.
With `CC(C)N1Cc2c(c(Cl)cc(Cl)c2-n2c(=O)cc(C(F)(F)F)n(C)c2=O)C1=O` [Compound 4], the activity at 1000 g/ha in [1], in test [2], in [3], in test [4], in test [5] and in [6] was 100% in each case. Moreover, the activity at 1000 g/ha in test [7], in test [8], in test [9], in test [10], in test [11] and in test [12] was 100% each time. For the same compound, the activity at 1000 g/ha in test [13], in test [14], in test [15], in test [16], in test [17] and in test [18] was 100% each time. In addition, the activity at 1000 g/ha in [19] and in [20] was 100% in each case.
As for `CCN1Cc2c(c(Cl)cc(Cl)c2-n2c(=O)cc(C(F)(F)F)n(C)c2=O)C1=O` [Compound 5], the activity at 1000 g/ha in test [1], in test [2], in test [3], in [4], in test [5] and in test [6] was 100% each time. Further, the activity at 1000 g/ha was 100% in test [7]; 100% in [8]; 100% in test [9]; 100% in test [10]; 95% in test [11]; 100% in test [12]. Besides, the activity at 1000 g/ha in [13], in [14], in test [15], in test [16], in test [17] and in test [18] was 100% throughout. In addition, the activity at 1000 g/ha in [19] and in test [20] was 100% each time.
Turning to `COCCN1Cc2c(-n3c(=O)cc(C(F)(F)F)n(C)c3=O)ccc(Cl)c2C1=O` [Compound 23], the activity at 1000 g/ha in test [1], in test [2], in test [3], in test [4], in [5] and in test [6] was 100% in each case. In addition, the activity at 1000 g/ha came out at 100% in test [7]; 100% in test [9]; 100% in [11]; 100% in test [12]; 80% in test [13]; 100% in [14]. Also, the activity at 1000 g/ha in test [15], in test [16], in [17], in [18], in [19] and in test [20] was 100% throughout.
Regarding `Cn1c(C(F)(F)F)cc(=O)n(-c2ccc(Cl)c3c2CN(Cc2ccc(Cl)cc2)C3=O)c1=O` [Compound 24], the activity at 1000 g/ha in test [1] was 10%; in [2], 30%; in [3] it was 50%; in [4], 100%; in test [5], 30%; in test [6] it was 70%. Besides, the activity at 1000 g/ha in test [7] worked out at 10%; in [9], 95%; in [11] it was 60%; in [12] it was 30%; in [13], 70%; in [14], 100%. Further, the activity at 1000 g/ha in test [15] is 30%; in [16] it was 100%; in test [17], 80%; in test [18], 70%; in test [19] it was 70%; in test [20], 40%.
On to `CC(C)N1Cc2c(-n3nc4n(c3=O)CCCC4)ccc(Cl)c2C1=O` [Compound 83, 2-[7-chloro-2-(1-methylethyl)isoindolin-1-on-4-yl]-5,6,7,8-tetrahydro-1,2,4-triazolo[4,3-A]pyridin-3(2H)-one], for which the activity at 1000 g/ha in test [1] came out at 5%; in [2], 10%; in test [3] it was 0%; in [4], 100%; in test [5], 60%; in [6], 100%. For the same compound, the activity at 1000 g/ha amounted to 30% in test [7]; 50% in test [8]; 60% in [9]; 80% in test [11]; 30% in test [12]; 60% in test [13]. Further, the activity at 1000 g/ha in test [14] was determined as 100%; in test [15] it was 90%; in test [16], 80%; in [17], 60%; in test [18], 50%; in [19], 60%.

These data come from US6277847A, “Herbicidal isoindolinonyl-and 3,4-dihydroisoquinolonyl-substituted heterocycles” (FMC Corporation, priority 2000, dated 2001).
